Article PMC7730182, “Synthesis and in Silico Modelling of the Potential Dual Mechanistic Activity of Small Cationic Peptides Potentiating the Antibiotic Novobiocin against Susceptible and Multi-Drug Resistant Escherichia coli” (International Journal of Molecular Sciences, 2020)
Where a SMILES comes first, the peptide text is derived from it. The star is where a group is joined. βNA = c1ccc2cc(N*)ccc2c1

Tests used:
Assay type in all cases: cell-based, Escherichia coli
[1] = tested on: susceptible E. coli NCTC 10418; test: Novobiocin potentiation assay (MIC of novobiocin with fixed concentration of peptide or PAβN); design: key to MIC of Novobiocin, E. coli NCTC 10418, +128 μg/mL added peptide / MIC of Novobiocin, E. coli NCTC 10418, +32 μg/mL added peptide: Non potentiating (NP) indicated no reduction in the MIC of novobiocin was observed; conditions: for MIC of Novobiocin, E. coli NCTC 10418, +32 μg/mL added peptide / MIC of Novobiocin, E. coli NCTC 10418, +128 μg/mL added peptide: Iso-Sensitest Broth, 5 × 10^5 CFU/mL, visual read-out; for MIC of Novobiocin, E. coli NCTC 10418, +32 μg/mL added peptide: fixed 32 μg/mL peptide; for MIC of Novobiocin, E. coli NCTC 10418, +128 μg/mL added peptide: fixed 128 μg/mL peptide
Protocol: (§1) The peptides were also tested in combination with antibiotics novobiocin and norfloxacin. Novobiocin has low efficacy against Gram-negative bacteria due to its hydrophobicity, giving limited cell permeability.
(§2) The antibacterial activity of the peptides and peptide/antibiotic combinations were tested by the broth microdilution assay according to [24]. Escherichia coli NCTC 10,418 and Staphylococcus aureus NCTC 12,981 were obtained from the National Collection of Type Cultures, UK. Escherichia coli G69 was a clinical isolate as previously described.
(§3) Briefly, all bacterial strains were cultured on nutrient agar (Sigma-Aldrich, Gillingham, UK) plates and incubated for 24 h at 37 °C prior to MIC determination. In addition, known quantities of each test sample were dissolved in DMSO and then diluted in ISB (Iso- Sensitest Broth, Oxoid, Basingstoke, UK) to give a range concentration of 128–0 μg/mL, unless stated differently. […] Finally, the overnight cultures of each of the tested strains were suspended to an inoculum density of approximately 1.0 × 10^8 CFU/mL in phosphate buffered saline (PBS), consisting of 137 mM NaCl, 3 mM KCl, 8 mM Na2HPO4, and […] (Oxoid, Basingstoke, UK). The cell suspensions were standardized by adjusting the optical density to 0.1 at 600 nm (Thermo Scientific UV-Vis Spectrophotometer, Abingdon, UK) before being diluted 1:100 in ISB prior to inoculation
(§4) The assays were performed by microdilution using 96-well microtiter plates with a final inoculum of 5 × 10^5 CFU/mL and each sample was tested in duplicate in at least two independent experiments in order to confirm the reliability of the data. Results were determined by visual inspection of the wells and the presence of an evident opaque medium or white pellets were indicative of bacterial growth. The MIC values were recorded as the lowest concentration at which no bacterial growth was detected.

[2] = tested on: multi-drug resistant clinical isolate E. coli G69; test: as above; design: key to MIC of Novobiocin, E. coli G69, +32 μg/mL added peptide / MIC of Novobiocin, E. coli G69, +128 μg/mL added peptide: Non potentiating (NP) indicated no reduction in the MIC of novobiocin was observed; conditions: for potentiation of novobiocin against multi-drug resistant E. coli, result in words: E. coli G69, added peptide; for MIC of Novobiocin, E. coli G69, +32 μg/mL added peptide / MIC of Novobiocin, E. coli G69, +128 μg/mL added peptide: Iso-Sensitest Broth, 5 × 10^5 CFU/mL, visual read-out; for MIC of Novobiocin, E. coli G69, +32 μg/mL added peptide: fixed 32 μg/mL peptide; for MIC of Novobiocin, E. coli G69, +128 μg/mL added peptide: fixed 128 μg/mL peptide
Protocol: as §1, §2, §3, §4

[3] = tested on: multidrug resistant clinical isolate E. coli G69; test: Norfloxacin potentiation assay (MIC of norfloxacin with fixed concentration of peptide or PAβN); conditions: broth microdilution, duplicate; for MIC of norfloxacin, E. coli G69, +128 μg/mL of peptide: fixed 128 μg/mL peptide
Protocol: (§5) In order to gather more evidence on the potential mechanisms of action, the effects of the peptides in combination with the quinolone antibiotic norfloxacin were determined. Norfloxacin is active against Gram-negative bacteria, generally achieving entry via porin channels, but is also able to enter the bacterial cell via the membrane in porin-deficient mutants. Therefore, any membrane permeability mechanism would not be expected to have a significant effect on improving the activity of norfloxacin in porin-competent strains. This is indeed what was observed (Table S5), which added weight to our hypothesis that our very short peptides may be acting as membrane permeability enhancers for novobiocin.
as §2
as §3, with “inoculation […]” for “inoculation”
as §4, with “detected. […]” for “detected.”
(§6) potentiating novobiocin. Assays were performed at fixed concentration of 128 μg/mL against susceptible E. coli 10418 and multidrug resistant clinical isolate E. coli G69. Potentiation assay for norfloxacin was also performed in presence of 64 μg/mL of RND efflux pump inhibitor PAβN. All tests were repeated in […]
(§7) Compound Sequence MIC of norfloxacin (μg/mL) […]
(§8) inhibitor PaβN but no potentiation was observed, so the assay was not repeated at lower concentrations.

[4] = tested on: susceptible E. coli 10418; test: as above; conditions: broth microdilution, duplicate; for MIC of norfloxacin, E. coli 10418, +128 μg/mL of peptide: fixed 128 μg/mL peptide
Protocol: as §5, §2
as §3, with “inoculation […]” for “inoculation”
as §4, with “detected. […]” for “detected.”
as §6, §7, §8

[5] = fixed 32 μg/mL PAβN, broth microdilution, duplicate
[6] = fixed 64 μg/mL PAβN, broth microdilution, duplicate

Row | Molecule | MIC of Novobiocin, E. coli NCTC 10418, +32 μg/mL added peptide ([1]; broth microdilution, duplicate) | MIC of Novobiocin, E. coli NCTC 10418, +128 μg/mL added peptide ([1]; broth microdilution, duplicate) | MIC of Novobiocin, E. coli G69, +32 μg/mL added peptide ([2]; broth microdilution, duplicate) | MIC of Novobiocin, E. coli G69, +128 μg/mL added peptide ([2]; broth microdilution, duplicate) | MIC of norfloxacin, E. coli G69, +128 μg/mL of peptide [3] [µg/mL] | MIC of norfloxacin, E. coli 10418, +128 μg/mL of peptide [4] [µg/mL] | further results
1 | FKFKF [Compound 19, short cationic peptide FKFKF, amidated at the C-terminus] | 128 µg/mL | 4 µg/mL | 32 µg/mL | 8 µg/mL | – | – | potentiation of novobiocin against multi-drug resistant E. coli, result in words [2]: restore the susceptibility
2 | RFRF [Compound 9, short cationic peptide RFRF, amidated at the C-terminus] | NP | 2 µg/mL | 128 µg/mL | 8 µg/mL | > 128 | 0.062 | –
3 | RPRPRPL [Compound 22, proline-rich cationic peptide RPRPRPL, amidated at the C-terminus] | – | NP | – | NP | > 128 | 0.062 | potentiation of the MIC of novobiocin, result in words ([1]; added peptide, wording covers susceptible and multi-drug resistant strain): did not show any significant potentiation
4 | NC(N)=NCCC[C@H](NC(=O)[C@@H](N)Cc1ccccc1)C(=O)Nc1ccc2ccccc2c1 [PAβN, phenylalanine-arginine-β-naphthylamide, reference compound] (H-Phe-Arg-βNA) | – | – | – | – | – | – | reduction in MIC for novobiocin, susceptible E. coli 10418 ([1]; PAβN concentration of 72 μM (32 μg/mL)): twofold; MIC of Novobiocin, E. coli NCTC 10418, +32 μg/mL PAβN [1, 5]: 16 µg/mL; MIC of Novobiocin, E. coli NCTC 10418, +64 μg/mL PAβN [1, 6]: 8 µg/mL; MIC of Novobiocin, E. coli G69, +32 μg/mL PAβN [2, 5]: 8 µg/mL; MIC of Novobiocin, E. coli G69, +64 μg/mL PAβN [2, 6]: 2 µg/mL; concentration at which synergism with novobiocin is provided against multi-drug resistant E. coli G69 ([2]; molar equivalent of the 32 μg/mL fixed concentration): 72 µM; MIC of norfloxacin, E. coli G69, +64 μg/mL PAβN ([3]; fixed 64 μg/mL PAβN): > 128 µg/mL; MIC of norfloxacin, E. coli 10418, +64 μg/mL PAβN ([4]; fixed 64 μg/mL PAβN): 0.125 µg/mL
5 | FRRQRF [Compound 21, short cationic peptide FRRQRF, C-terminal amide; commercial sample from ThermoFisher] | – | NP ^† | – | NP | > 128 | 0.062 | –
6 | KFKF [Compound 18, short cationic peptide KFKF, amidated at the C-terminus] | – | NP | – | NP | – | – | –
7 | KWKW [Compound 14, short cationic peptide KWKW, amidated at the C-terminus] | – | NP | – | NP | – | – | –
8 | RPPWRPPW [Compound 26] | 64 µg/mL | 8 µg/mL | – | NP | > 128 | – | potentiation of novobiocin against multi-drug resistant E. coli, result in words [2]: no potentiation was seen against the multidrug resistant strain
9 | FRFR [Compound 8, short cationic peptide FRFR, amidated at the C-terminus] | – | NP | NP | 8 µg/mL | – | – | –
